Experimental data published in PMC12121777 (PLOS One, 2025).
≈ marks a conversion by molar mass, not a printed value. Read-outs that look alike come from different tables or passages of the source.

Key:
[1] = system: Mycobacterium avium 330/88; assay: MIC, micro method in Šula's semisynthetic medium, M. avium; type: cell-based
[2] = system: Mycobacterium kansasii 6509/96; assay: MIC, micro method in Šula's semisynthetic medium, M. kansasii clinical isolate; type: cell-based; conditions: read-out: MIC M. kansasii 6509/96
Mtb 331/88 (i.e., H37Rv) = assay: MIC, micro method in Šula's semisynthetic medium, drug-susceptible Mtb; type: cell-based, Mycobacterium tuberculosis; conditions: Mycobacterium tuberculosis, H37RV
HepG2 cells = assay: Cytotoxicity on HepG2 cell line (CellTiter 96); type: cell-based, human; conditions: Homo sapiens, HepG2, 24 h, read-out: IC50 HepG2
[3] = 330/88, 336 h, read-out: MIC M. avium 330/88
[4] = 330/88, 504 h, read-out: MIC M. avium 330/88

Row | SMILES | MIC [1, 3] | MIC [1, 4] | MIC ([2]; 6509/96, 168 h) | MIC ([2]; 6509/96, 336 h) | MIC ([2]; 6509/96, 504 h) | MIC (Mtb 331/88 (i.e., H37Rv); 336 h, 14 days) | MIC (Mtb 331/88 (i.e., H37Rv); 504 h, 21 days) | IC50 (HepG2 cells) | MIC ([1]; 330/88, read-out: MIC M. avium)
1 | CCCCCCCCCCCCNc1nnc(-c2cc([N+](=O)[O-])cc([N+](=O)[O-])c2)o1 [Compound 5l, 5-(3,5-Dinitrophenyl)-N-dodecyl-1,3,4-oxadiazol-2-amine] | 4 µM (≈ 1.68 µg/mL) | 8 µM (≈ 3.36 µg/mL) | 1 µM (≈ 0.419 µg/mL) | 1 µM (≈ 0.419 µg/mL) | 1 µM (≈ 0.419 µg/mL) | 1 µM (≈ 0.419 µg/mL) | 1 µM (≈ 0.419 µg/mL) | > 50 µM | 
2 | CCCCCCCCCCCCNC(=O)NNC(=O)c1cc([N+](=O)[O-])cc([N+](=O)[O-])c1 [Compound 4l, 2-(3,5-Dinitrobenzoyl)-N-dodecylhydrazine-1-carboxamide] | > 250 µM | > 250 µM | 2 µM (≈ 0.875 µg/mL) | 2 µM (≈ 0.875 µg/mL) | 4 µM (≈ 1.75 µg/mL) | 2 µM (≈ 0.875 µg/mL) | 2 µM (≈ 0.875 µg/mL) | 166 µM | 
3 | CCCCCCCCCCCCCCNC(=O)NNC(=O)c1cc([N+](=O)[O-])cc([N+](=O)[O-])c1 [Compound 4n, 2-(3,5-Dinitrobenzoyl)-N-tetradecylhydrazine-1-carboxamide] | > 500 µM | > 500 µM | 4 µM (≈ 1.86 µg/mL) | 8 µM (≈ 3.72 µg/mL) | 8 µM (≈ 3.72 µg/mL) | 4 µM (≈ 1.86 µg/mL) | 8 µM (≈ 3.72 µg/mL) | 207 µM | 
4 | CCCCCCNC(=O)NNC(=O)c1cc([N+](=O)[O-])cc([N+](=O)[O-])c1 [Compound 4f, 2-(3,5-Dinitrobenzoyl)-N-hexylhydrazine-1-carboxamide] | 250 µM (≈ 88.3 µg/mL) | 250 µM (≈ 88.3 µg/mL) | 1 µM (≈ 0.353 µg/mL) | 1 µM (≈ 0.353 µg/mL) | 1 µM (≈ 0.353 µg/mL) | 1 µM (≈ 0.353 µg/mL) | 1 µM (≈ 0.353 µg/mL) | 119 µM | 125 to 250 µM (≈ 44.2 to 88.3 µg/mL)
5 | CCCCCNc1nnc(-c2cc([N+](=O)[O-])cc([N+](=O)[O-])c2)o1 [Compound 5e, 5-(3,5-Dinitrophenyl)-N-pentyl-1,3,4-oxadiazol-2-amine] | > 500 µM | > 500 µM | 0.25 µM (≈ 0.0803 µg/mL) | 0.5 µM (≈ 0.161 µg/mL) | 0.5 µM (≈ 0.161 µg/mL) | 0.25 µM (≈ 0.0803 µg/mL) | 0.25 µM (≈ 0.0803 µg/mL) | > 250 µM | 
6 | CCCCCCCCCNC(=O)NNC(=O)c1cc([N+](=O)[O-])cc([N+](=O)[O-])c1 [Compound 4i, 2-(3,5-Dinitrobenzoyl)-N-nonylhydrazine-1-carboxamide] | 125 µM (≈ 49.4 µg/mL) | 250 µM (≈ 98.9 µg/mL) | 1 µM (≈ 0.395 µg/mL) | 1 µM (≈ 0.395 µg/mL) | 1 µM (≈ 0.395 µg/mL) | 0.5 µM (≈ 0.198 µg/mL) | 1 µM (≈ 0.395 µg/mL) | 125 µM | 125 to 250 µM (≈ 49.4 to 98.9 µg/mL)
7 | CCCCCCCCNc1nnc(-c2cc([N+](=O)[O-])cc([N+](=O)[O-])c2)o1 [Compound 5h, 5-(3,5-Dinitrophenyl)-N-octyl-1,3,4-oxadiazol-2-amine] | 8 µM (≈ 2.91 µg/mL) | 16 µM (≈ 5.81 µg/mL) | ≤ 0.03 µM | 0.06 µM (≈ 0.0218 µg/mL) | 0.06 µM (≈ 0.0218 µg/mL) | 0.06 µM (≈ 0.0218 µg/mL) | 0.06 µM (≈ 0.0218 µg/mL) | > 100 µM | 
8 | CCCCCNC(=O)NNC(=O)c1cc([N+](=O)[O-])cc([N+](=O)[O-])c1 [Compound 4e, 2-(3,5-Dinitrobenzoyl)-N-pentylhydrazine-1-carboxamide] | 1000 µM (≈ 339 µg/mL) | 1000 µM (≈ 339 µg/mL) | 1 µM (≈ 0.339 µg/mL) | 1 µM (≈ 0.339 µg/mL) | 2 µM (≈ 0.679 µg/mL) | 1 µM (≈ 0.339 µg/mL) | 1 µM (≈ 0.339 µg/mL) | 134 µM | 
9 | CCCCCCCCCCNc1nnc(-c2cc([N+](=O)[O-])cc([N+](=O)[O-])c2)o1 [Compound 5j, N-Decyl-5-(3,5-dinitrophenyl)-1,3,4-oxadiazol-2-amine] | 4 µM (≈ 1.57 µg/mL) | 8 µM (≈ 3.13 µg/mL) | 1 µM (≈ 0.391 µg/mL) | 1 µM (≈ 0.391 µg/mL) | 1 µM (≈ 0.391 µg/mL) | 0.5 µM (≈ 0.196 µg/mL) | 1 µM (≈ 0.391 µg/mL) | > 100 µM | 
